Patent publication US9050320B2, “Method for inducing lymphoid tissue and modulating intestinal homeostasis” (Institut Pasteur, priority 2009, dated 2015)

Assays:
[1] = test system: isolated lymphoid follicles (ILFs); test: ILFs in SPF mice treated from birth with antibiotics in drinking water; type: in vivo; details: antibiotic in drinking water
Description: Antibodies, fusion proteins and antibiotics. Purified anti-CD11c (HL3) was purchased from BD Biosciences, phycoerythrin (PE)-, allophycocyanin (APC)- or biotin-conjugated anti-CD45R/B220 (RA3-6B2), and anti-CD45.2 (104) were purchased from eBiosciences, and purified anti-GFP (A-11122) and FITC-conjugated anti-rabbit polyclonal were purchased from Invitrogen. Neutralizing anti-CCL20 (114906) antibody was purchased from R&D Systems and 50-100 μg was injected i.p. in PBS twice a week. Human IgG1 and LTβR-Ig fusion protein have been previously described ^12; 100 μg protein was injected i.p. into pregnant mice 14.5 and 16.5 days after conception, or 50 μg protein was injected i.p. into newborn mice 1 day, 6 days and 12 days after birth, then 100 μg 15 days after birth. Vancomycin and colistin were purchased from Sigma and supplied to mice in the drinking water at a concentration of 500 mg/l and 1 g/l, respectively.
Immunofluorescence histology. […] Slides were examined under an Axiolmager M1 fluorescence microscope (Zeiss) equipped with a CCD camera and images were processed with AxioVision software (Zeiss). For the quantification of CPs and ILFs, 10-20 sections were cut at regular intervals through the whole thickness of flat ileal or colonic fragments of 2 cm in length and stained. CPs and ILFs were then counted under a fluorescence microscope.

Euprymna scolopes = details: squid light organ; cited from earlier work
[2] = test system: isolated lymphoid follicles (ILFs); test: ILF formation in germfree mice reconstituted with bacteria; type: in vivo; details: adult germfree mice reconstituted, 8 weeks
Description: Bacterial strains and culture. ASF bacteria include the Gram^+Clostridium propionicum (ASF 356), Lactobacillus acidophilus (ASF 360), Lactobacillus murinus (ASF 361), Eubacterium plexicaudatum (ASF 492), Firmicutes sp. (ASF 500) and Clostridium sp. (ASF 502), the Gram^−Mucispirillum schaedleri (ASF 457) and Bacteroides distasonis (ASF 519) (Supplementary FIG. 2) ^13,34, and were obtained from Taconic. The bacteria were cultured in anaerobic conditions on Schaedler agar (Difco laboratories) supplemented with 5% sterile sheep blood (Biorad) in an anaerobic Glove chamber containing a 5% CO2, 10% H2 and 85% N2 atmosphere (Jacomex). The media were pre-reduced by placing them inside the chamber 2 days prior to inoculation of bacteria. Cultures were incubated in the chamber at 37° C. for different periods of time (1-5 days) depending on the bacterial strain. […]
Bacterial colonization of germfree mice. […] Fecal pellets from inoculated mice were assessed for colonization by microscopic examination of smears and quantified by serial dilutions of stool spread on Schaedler agar plates or by quantitative PCR (qPCR). […] Mice were colonized to similar levels by strains MC1061 and MHD79 (˜2.5×10^9 cfu/g of feces) and analyzed 8 weeks after bacterial reconstitution. […]

[3] = test system: isolated lymphoid follicles (ILFs); test: ILF formation in germfree mice given peptidoglycans in the drinking water; type: in vivo
Description: Peptidoglycans. Peptidoglycan were purified from E. coli strain MC1061 as previously described ^32. Highly purified PGN (total of 100 mg) was digested with mutanolysin (Sigma) ^33 to generate the entire range of muropeptides present in E. coli PGN (Supplementary FIG. 3b). Soluble muropeptides were separated by reverse phase HPLC, and the N-acetylglucosamyl-β1,4-N-acetylmuramyl-L-alanyl-D-γ-glytamyl-meso-diaminopimelate-D-alanine (GMtetraDAP) was collected and purity tested by a new HPLC analysis (Supplementary FIG. 3b). The nature of the GMtetraDAP was confirmed by MALDI-TOF mass spectrometry analysis as previously described ^33. Muramyldipeptide (MDP) was purchased from Sigma. Mice received MDP or GMtetraDAP in drinking water at a fixed concentration of 1 μM from the age of 2 weeks (Experiment I) or form birth (experiment II) for different periods of time.
Immunofluorescence histology. Intestines were opened and washed several times in PBS before fixation overnight at 4° C. in a fresh solution of 4% paraformaldehyde (Sigma) in PBS. The samples were then washed 1 day in PBS, incubated in a solution of 30% sucrose (Sigma) in PBS until the samples sank, embedded in OCT compound 4583 (Sakura Finetek), frozen in a bath of isopentane cooled with liquid nitrogen and stocked at −80° C. Frozen blocs were cut at 8 μm thickness and sections collected onto Superfrost/Plus slides (VWR). Slides were dried 1 hour and processed for staining, or stocked at −80° C. For staining, slides were first hydrated in PBS-XG, (PBS containing 0.1% triton X-100 and 1% normal bovine serum, VWR) for 5 min and blocked with 10% bovine serum in PBS-XG for 1 hour at room temperature. […] Slides were examined under an Axiolmager M1 fluorescence microscope (Zeiss) equipped with a CCD camera and images were processed with AxioVision software (Zeiss). For the quantification of CPs and ILFs, 10-20 sections were cut at regular intervals through the whole thickness of flat ileal or colonic fragments of 2 cm in length and stained. CPs and ILFs were then counted under a fluorescence microscope.

CN[C@H](CC(C)C)C(=O)N[C@H]1C(=O)N[C@@H](CC(N)=O)C(=O)N[C@H]2C(=O)N[C@H]3C(=O)N[C@H](C(=O)N[C@H](C(=O)O)c4cc(O)cc(O)c4-c4cc3ccc4O)[C@H](O)c3ccc(c(Cl)c3)Oc3cc2cc(c3O[C@@H]2O[C@H](CO)[C@@H](O)[C@H](O)[C@H]2O[C@H]2C[C@](C)(N)[C@H](O)[C@H](C)O2)Oc2ccc(cc2Cl)[C@H]1O [vancomycin, Vancomycin]
formation of ILFs [1]: formed significant numbers of ILFs, but lower numbers than in control mice

tracheal cytotoxin [TCT]
hemocyte infiltration of crypts, epithelial apoptosis and morphogenesis (Euprymna scolopes): recapitulated by TCT alone

Lactobacillus acidophilus
induction of ileal and colonic ILFs [2]: induced no or few ILFs

CC(=O)N[C@H]1[C@H](O[C@H]2[C@H](O[C@H](C)C(=O)N[C@@H](C)C(=O)N[C@H](CCC(=O)N[C@@H](CCC[C@@H](N)C(=O)O)C(=O)N[C@H](C)C(=O)O)C(=O)O)[C@@H](NC(C)=O)C(O)O[C@@H]2CO)O[C@H](CO)[C@@H](O)[C@@H]1O (stereo partly drawn) [GMtetraDAP, N-acetylglucosamyl-β1,4-N-acetylmuramyl-L-alanyl-D-γ-glytamyl-meso-diaminopimelate-D-alanine]
ILFs in sections from the ileum (histology) ([3]; 8 weeks old germ free mice, in drinking water from birth): ILFs were numerous and showed some level of follicular organization | ILFs in the colon ([3]; germfree mice, 1 μM in drinking water, 10 weeks of treatment starting from birth (Experiment II)): Significant numbers of ILFs were also detected | induction of ILFs in the ileum ([3]; germfree mice, 1 μM in drinking water, after 6 weeks of treatment): induced a significant number of ILFs, mostly iILFs

colistin
formation of ILFs [1]: formed few ILFs
